Data on 2 compounds can be found in patent US9133180B2, “Aurora and FLT3 kinases modulators” (SAREUM LIMITED, priority 2012, dated 2015).

Data set [1] concerns the target Aurora A kinase (Homo sapiens (Human), UniProt O14965). Briefly: Aurora A kinase 33P-ATP filter assay (Reaction Biology Corp.). The data set is classed as biochemical. How it is done:
(§1) The ability of the compounds of the invention to inhibit FLT3 kinase and Aurora A and Aurora B kinases was determined using the assays described below.
(§2) Kinase assays were performed at Reaction Biology Corp., Malvern, Pa., USA, using the following general procedure:
(§3) 1) Prepare indicated substrate in freshly prepared Base Reaction Buffer (20 mM Hepes pH 7.5, 10 mM MgCl2, 1 mM EGTA, 0.02% Brij35, 0.02 mg/ml BSA, 0.1 mM Na3VO4, 2 mM DTT, 1% DMSO).
(§4) 2) Deliver cofactors (1.5 mM CaCl2, 16 ug/mL Calmodulin, 2 mM MnCl2) to the substrate solution above.
(§5) 3) Deliver indicated kinase into the substrate solution and gently mix
(§6) 4) Deliver varying concentrations of test compound in DMSO into the kinase reaction mixture.
(§7) 5) Deliver ^33P-ATP (specific activity 0.01 µCi/µL final) into the reaction mixture to initiate the reaction.
(§8) 6) Incubate kinase reaction for 120 min at room temperature.
(§9) 7) Reactions are spotted onto P81 ion exchange filter paper (Whatman #3698-915)
(§10) 8) Unbound phosphate is removed by washing filters extensively in 0.75% phosphoric acid.
(§11) 9) ^33P signal was determined using Typhoon phosphorimagers (GE Healthcare).
(§12) Substrates: Kemptide=[H-LRRASLG] Abltide=[[…]]

Data set [2] concerns the target FLT3 kinase (Homo sapiens (Human), UniProt P36888). Put plainly: FLT3 kinase 33P-ATP filter assay (Reaction Biology Corp.). The data set is classed as biochemical. On the procedure:
as §1, §2, §3, §4, §5, §6, §7, §8, §9, §10, §11, §12

Data set [3] deals with HCT-116. Briefly: Anti-proliferative activity, Alamar Blue assay. The conditions noted are these: Homo sapiens, 96 h exposure, read-out: HCT116 96 Hrs IC50. The data set is classed as cell-based. How it is done:
The anti-proliferative activities of compounds of the invention are determined by measuring the ability of the compounds to inhibit the growth of the colorectal cancer derived cell-line HCT-116. Inhibition of cell growth is measured using the Alamar Blue assay (Nociari et al., Journal of Immunological Methods (1998) 213, 157-167). The method is based on the ability of viable cells to reduce resazurin to its fluorescent product resorufin. For each proliferation assay cells are plated onto 96 well plates and allowed to recover for 16 hours prior to the addition of inhibitor compounds for a further 96 hours. At the end of the incubation period 10% (v/v) Alamar Blue is added and incubated for a further 6 hours prior to determination of fluorescent product at Excitation 535 nm and Emission 590 nm. All cell lines are obtained from ECACC (European Collection of cell Cultures).
The activities of the compounds of the invention against the human colorectal cancer cell line HCT-116 are shown the in the table below. The column headed HCT-116 96 Hrs refers to the concentration of compound required to reduce the proliferation of HCT-116 cells by 50% following a 96 h period of exposure. The column headed [Polyploidy] refers to the lowest concentration of compound required to produce a distinct polyploid phenotype, believed to be due to Aurora B inhibition.
A general note: Resazurin is reduced to fluorescent resorufin, in cell work by metabolically active cells.

Data set [4] can be described thus: Caco-2 permeability assay. Type of data set: in vitro ADME. The conditions noted are these: human; for Papp A→B: A2B, read-out: Caco2 A2B Papp; for Papp B→A: B2A, read-out: Caco2 B2A Papp. How it is done:
The ability of a compound to be taken up and retained by a cell can be measured by carrying out permeability studies using Caco-2 cells.
Compounds of the present invention were therefore tested in a standard Caco-2 assay and the rate of flow of the compounds into and out of the cells was determined.
In the table, the column headed “Caco-2 A2B” indicates the rate at which compound flows into the cells and the column Caco-2 B2A indicates the rate at which compound flows out of the cells. The “Efflux Ratio” is the ratio of Caco-2 B2A:Caco-2 A2B.
Background: Caco-2 monolayers are a common model of the intestinal barrier.

Data set [5] relates to CCRF-CEM. Put plainly: CellTiter-Blue assay, haematological cell line. Type of data set: cell-based. The following applies: Homo sapiens, 96 h; CCRF-CEM (ALL), four days treatment. How it is done:
(§13) The compounds of Examples 2 and 7 were tested against a range of human haematological cell lines using the CellTiter-Blue® assay (#G8081, Promega) according to the manufacturer's instructions. Cells were harvested from exponential phase cultures, counted and plated in 96 well flat-bottom microtiter plates at a cell density of 20,000-90,000 cells/well. After a 24 h recovery period to allow the cells to resume exponential growth, 10 μl of culture medium (four control wells/plate) or of culture medium with test compound were added. The compounds were applied in duplicates at ten concentrations and treatment continued for four days. After treatment of cells, 10 μl/well CellTiter-Blue® reagent was added. Following an incubation period of up to four hours, fluorescence (FU) was measured by using the EnVision Xcite multilabel reader (excitation λ=531 nm, emission λ=615 nm). The compounds were tested in two to four independent experiments for each cell line.

The test system of data set [6] is EM-2. Put plainly: CellTiter-Blue assay, haematological cell line. Type of data set: cell-based. The following applies: Homo sapiens, 96 h; EM-2 (CML), four days treatment. How it is done: as §13
Data set [7] has as its system IM-9. Briefly: CellTiter-Blue assay, haematological cell line. Type of data set: cell-based. The following applies: Homo sapiens, 96 h; IM-9 (MM), four days treatment. How it is done: as §13
The subject of data set [8] is KCL-22. Put plainly: CellTiter-Blue assay, haematological cell line. The data set is classed as cell-based. The following applies: Homo sapiens, 96 h; KCL-22 (CML), four days treatment. On the procedure: as §13
Data set [9] concerns MV4-11 xenograft tumors. Briefly: MV4-11 xenograft study in nude mice. The data set is classed as in vivo, Balb/c nude mouse. The following applies: 4 cycles; for tumour inhibitory rate (IR): 5 days on, 2 day off, tumour weight at end point. From the text:
The in vivo antitumour activity of compounds of the invention was investigated by examining the effect of the compounds of Examples 2 and 7 on tumour growth in a nude mouse xenograft model of the MV4-11 cancer cell line.
MV4-11 cell line (ATCC, USA); RPMI 1640 medium (Invitrogen, USA); FBS (Invitrogen, Australia); Balb/c nude mouse (Slac Laboratory Animal Co., Ltd., Shanghai, China): female, 18-22 g; HP-6-CD (Sigma, USA).
A total of 52 female nude mice were used. The mice were allowed 3 days of acclimatization period before starting the experiment. Mice were implanted subcutaneously (s.c.) with 200 μl of 1×10^7MV4-11 tumour cells in 50% Matrigel in the right flank at the beginning of the study. When tumours reached an average volume of 100-150 mm^3, 32 mice out of the 52 were selected based on tumour volume, and randomly assigned to 4 groups prior to dosing. Each treatment group consisted of 8 tumour-bearing animals (n=8/group).
A comparison group of mice were treated with cytarabine once daily for 5 days on, 2 days off, for 4 cycles.
Mice were weighed at each dosing and the tumour sizes recorded twice each week. Mice were observed closely for any overt signs of adverse, treatment-related side effects and these were recorded if and when they were observed.
The tumour size was measured twice weekly in two dimensions using calipers, and the volume was expressed in mm^3 using the formula: V=0.5 a×b^2 where a and b were the long and short diameters of the tumour, respectively.
Mice were euthanized by CO2 exposure after 4-cycle dose. The tumour volume, weight of dissected tumours, and the mouse body weight were measured and recorded. The tumour inhibitory rate (IR) was calculated by the formula IR=(WV−WT)/WV×100%.
The differences in tumour size between the groups were analyzed for significance using the unpaired two-tailed Student's t-test. P<0.05 was considered to be statistically significant.

Aurora A kinase, sequence (O14965 whole entry): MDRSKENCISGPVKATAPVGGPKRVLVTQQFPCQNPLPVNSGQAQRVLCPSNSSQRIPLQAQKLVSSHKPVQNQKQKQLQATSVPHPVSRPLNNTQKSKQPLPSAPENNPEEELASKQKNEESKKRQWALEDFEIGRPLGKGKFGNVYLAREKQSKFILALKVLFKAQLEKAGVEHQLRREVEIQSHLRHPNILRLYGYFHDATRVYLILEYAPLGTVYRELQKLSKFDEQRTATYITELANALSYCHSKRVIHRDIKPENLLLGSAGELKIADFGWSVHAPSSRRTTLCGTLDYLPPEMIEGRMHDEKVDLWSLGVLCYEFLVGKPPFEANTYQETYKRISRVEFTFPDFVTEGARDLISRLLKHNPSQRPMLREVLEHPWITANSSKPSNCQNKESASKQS
FLT3 kinase, sequence (P36888 27-993): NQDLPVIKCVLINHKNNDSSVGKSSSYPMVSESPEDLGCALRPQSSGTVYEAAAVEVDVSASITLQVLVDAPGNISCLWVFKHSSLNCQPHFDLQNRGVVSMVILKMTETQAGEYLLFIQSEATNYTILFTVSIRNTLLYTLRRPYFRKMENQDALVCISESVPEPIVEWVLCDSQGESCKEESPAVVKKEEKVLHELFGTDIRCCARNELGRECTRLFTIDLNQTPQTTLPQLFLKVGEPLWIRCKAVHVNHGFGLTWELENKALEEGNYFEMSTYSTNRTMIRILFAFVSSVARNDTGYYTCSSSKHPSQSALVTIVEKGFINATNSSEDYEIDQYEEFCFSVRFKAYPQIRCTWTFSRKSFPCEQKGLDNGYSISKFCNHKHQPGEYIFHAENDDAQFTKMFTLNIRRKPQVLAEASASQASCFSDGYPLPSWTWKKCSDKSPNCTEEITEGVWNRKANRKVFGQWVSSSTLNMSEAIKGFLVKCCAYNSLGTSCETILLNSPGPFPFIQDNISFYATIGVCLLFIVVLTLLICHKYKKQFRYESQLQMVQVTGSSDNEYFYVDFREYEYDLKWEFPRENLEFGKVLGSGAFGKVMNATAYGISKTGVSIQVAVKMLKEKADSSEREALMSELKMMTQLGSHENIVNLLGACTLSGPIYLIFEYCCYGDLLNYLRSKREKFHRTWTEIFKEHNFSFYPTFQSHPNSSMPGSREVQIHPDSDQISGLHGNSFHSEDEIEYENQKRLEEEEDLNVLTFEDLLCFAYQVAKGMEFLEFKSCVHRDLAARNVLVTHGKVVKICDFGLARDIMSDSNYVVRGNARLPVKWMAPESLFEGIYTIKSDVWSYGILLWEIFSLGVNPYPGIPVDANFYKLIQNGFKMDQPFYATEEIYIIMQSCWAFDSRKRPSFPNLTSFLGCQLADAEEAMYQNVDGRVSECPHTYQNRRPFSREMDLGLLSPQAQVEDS

Consider `Cc1ccc2[nH]ccc2c1-c1nc(C(N)=O)c(-c2ccc(N3CCNC(C)(C)C3)cc2)o1` [Example 2, 2-(5-Methyl-1H-Indol-4-yl)-5-[4-(3,3-dimethyl-piperazin-1-yl)-phenyl]-oxazole-4-carboxylic acid amide], for which the IC50 (as a rule, the concentration at which inhibition is half-maximal) in data set [1] is 0.0136 µM; in data set [2], 0.00077 µM; in data set [3] it was 0.074 µM; in data set [5], 0.05 µM; in data set [6], 0.604 µM; in data set [7], 0.07 µM. The IC50 in data set [8] came out at 0.417 µM. Further, in data set [4], the Papp A→B was 1.98 ×10⁻⁶ cm/s. In addition, the Papp B→A in data set [4] is 9.91 ×10⁻⁶ cm/s. For the same compound, in [4] (B2A:A2B, read-out: Caco2 Efflux ratio), the efflux ratio came out at 4.99. Also, in data set [9] (20 mg/kg IV BID), the “effect on tumour growth (tumour volume)” value is on record as “completely inhibited the tumor growth”. The “tumour inhibitory rate (IR)” value in [9] (20 mg/kg IV BID) came to 98.13%.
Regarding `Cc1cc(F)c2[nH]ccc2c1-c1nc(C(N)=O)c(-c2ccc(N3CCNC(C)(C)C3)cc2)o1` [Example 7, 2-(5-Methyl-7-Fluoro-1H-Indol-4-yl)-5-[4-(3,3-dimethyl-piperazin-1-yl)-phenyl]-oxazole-4-carboxylic acid amide], the IC50 turned out to be 0.0425 µM in data set [1]; 0.00048 µM in [2]; 0.12 µM in data set [3]; 0.046 µM in data set [5]; 0.493 µM in [6]; 0.07 µM in data set [7]. This compound also gave a half-inhibitory concentration (IC50) in data set [8] of 0.366 µM. Moreover, in data set [4], the Papp A→B is 0.683 ×10⁻⁶ cm/s. The Papp B→A in data set [4] worked out at 2.26 ×10⁻⁶ cm/s. Besides, the “effect on tumour growth (tumour volume)” value in data set [9] (30 mg/kg IV BID) is “completely inhibited the tumor growth”. Also, the “tumour inhibitory rate (IR)” value in [9] (30 mg/kg IV BID) was 98.24%.
